From paper PMC11566078, “Bactericidal activities and biochemical features of 16 antimicrobial peptides against bovine-mastitis causative pathogens” (Veterinary Research, 2024) come the findings set out here.

In brackets after ≈: the same amount, converted by molar mass. Where two headings read alike, the source gives them in different places. Bounds are passed on as bounds.

Assay type in all cases: cell-based
Assay [1] relates to Staphylococcus haemolyticus. In words: MIC against field isolate from milk with high SCC. As to conditions: Staphylococcus haemolyticus, read-out: Minimal inhibitory concentration, Staphylococcus haemolyticus. On the procedure: (§1) All plates were cultivated aerobically.
(§2) Experiments were conducted in triplicate.

The subject of assay [2] is Escherichia coli ATCC 25922. Nature of the assay: microbe, parasite or virus in culture. As to conditions: Escherichia coli, ATCC25922, 8 h, MH broth, WST colourimetric, 1.5 × 10^5 cells/well, 37 °C 6 h + 2 h reagent, A450, triplicate, read-out: Minimal inhibitory concentration, Escherichia coli. On the procedure:
(§3) The standard bacterial strains used for antimicrobial activity assays include Staphylococcus aureus ATCC (American Type Culture Collection, Manassas, VA, USA) 6538, Bacillus cereus ATCC 10876, Enterococcus faecalis ATCC 29212, Streptococcus […] 27956, Streptococcus dysgalactiae ATCC 27957, Streptococcus equi subsp. zooepidemicus ATCC 43079, Escherichia coli ATCC 25922, and Pseudomonas aeruginosa ATCC 27853. Most bacterial strains were cultured in LB medium except for E. faecalis and streptococci, which were cultivated in brain heart infusion (BHI) broth (BD Bioscience). […] Experiments were conducted in triplicate.

Assay [3] has as its system Streptococcus dysgalactiae ATCC 27957. In words: microbe, parasite or virus in culture. As to conditions: Streptococcus dysgalactiae, ATCC27957; ATCC 27957; BHI broth; WST colourimetric, 37 °C 6 h; triplicate; read-out: Minimal inhibitory concentration, Streptococcus dysgalactiae. Here is the method:
as §3

In assay [4] the test system is Streptococcus equi subsp. zooepidemicus ATCC 43079. In words: microbe, parasite or virus in culture. As to conditions: Streptococcus equi, ATCC43079; ATCC 43079; BHI broth; WST colourimetric, 37 °C 6 h; triplicate; read-out: Minimal inhibitory concentration, Streptococcus equi subsp. zooepidemicus. Here is the method:
as §3

The subject of assay [5] is Bacillus cereus ATCC 10876. Nature of the assay: microbe, parasite or virus in culture. Conditions: Bacillus cereus, ATCC10876; ATCC 10876; MH broth; WST colourimetric, 37 °C 6 h; triplicate; read-out: Minimal inhibitory concentration, Bacillus cereus. Here is the method: as §3
Assay [6] has as its system Pseudomonas aeruginosa ATCC 27853. Nature of the assay: microbe, parasite or virus in culture. As to conditions: Pseudomonas aeruginosa, ATCC27853; ATCC 27853; CAMHB; WST colourimetric, 37 °C 6 h; triplicate; read-out: Minimal inhibitory concentration, Pseudomonas aeruginosa. On the procedure:
as §3

For assay [7], the system named is Streptococcus agalactiae ATCC 27956. Nature of the assay: microbe, parasite or virus in culture. As to conditions: Streptococcus agalactiae, ATCC27956; ATCC 27956; BHI broth; WST colourimetric, 37 °C 6 h; triplicate; read-out: Minimal inhibitory concentration, Streptococcus agalactiae. Here is the method: as §3
Assay [8] deals with Staphylococcus aureus ATCC 6538. Nature of the assay: microbe, parasite or virus in culture. As to conditions: Staphylococcus aureus, ATCC6538; ATCC 6538; MH broth; WST colourimetric, 37 °C 6 h; triplicate; read-out: Minimal inhibitory concentration, Staphylococcus aureus. Here is the method: as §3
For assay [9], the system named is Enterococcus faecalis ATCC 29212. In words: microbe, parasite or virus in culture. As to conditions: Enterococcus faecalis, ATCC29212; ATCC 29212; BHI broth; WST colourimetric, 37 °C 6 h; triplicate; read-out: Minimal inhibitory concentration, Enterococcus faecalis. Here is the method:
as §3

The test system of another assay is Corynebacterium simulans. Nature of the assay: microbe, parasite or virus in culture. As to conditions: Corynebacterium simulans; field isolate from milk; BHI broth; WST colourimetric, 37 °C 6 h; triplicate; read-out: Minimal inhibitory concentration, Corynebacterium simulans. On the procedure: as §1, §2
The test system of a further assay is Staphylococcus xylosus. In words: microbe, parasite or virus in culture. As to conditions: Staphylococcus xylosus, read-out: Minimal inhibitory concentration, Staphylococcus xylosus. On the procedure:
as §1, §2

Assay [10] relates to Staphylococcus epidermidis. Nature of the assay: microbe, parasite or virus in culture. As to conditions: Staphylococcus epidermidis; field isolate from milk; WST colourimetric, 37 °C 6 h; triplicate; read-out: Minimal inhibitory concentration, Staphylococcus epidermidis. On the procedure: as §1, §2
The test system of assay [11] is Staphylococcus chromogenes. Nature of the assay: microbe, parasite or virus in culture. As to conditions: Staphylococcus chromogenes, read-out: Minimal inhibitory concentration, Staphylococcus chromogenes. Here is the method:
as §1, §2

A further assay concerns Aeromonas hydrophila. In words: microbe, parasite or virus in culture. Conditions: Aeromonas hydrophila; Gram-negative field isolate from milk; BHI broth; WST colourimetric, 37 °C 6 h; triplicate; read-out: Minimal inhibitory concentration, Aeromonas hydrophila. On the procedure: as §1, §2
Assay [12] deals with Glutamicibacter halophytocola. Nature of the assay: microbe, parasite or virus in culture. As to conditions: Glutamicibacter halophytocola; field isolate from milk; BHI broth; WST colourimetric, 37 °C 6 h; triplicate; read-out: Minimal inhibitory concentration, Glutamicibacter halophytocola. On the procedure:
as §1, §2

The next assay deals with Streptococcus uberis. Nature of the assay: microbe, parasite or virus in culture. As to conditions: Streptococcus uberis; field isolate from milk; BHI broth; WST colourimetric, 37 °C 6 h; triplicate; read-out: Minimal inhibitory concentration, Streptococcus uberis. On the procedure:
as §1, §2

The mark [13] stands for this setting: field isolate from milk, WST colourimetric, 37 °C 6 h, triplicate.
Setting [14] is: value in brackets, Additional file 6, field isolate.

In the case of `CC1(C)S[C@@H]2[C@H](NC(=O)[C@H](N)c3ccccc3)C(=O)N2[C@H]1C(=O)O` [Ampicillin, reference compound], the MIC came to 10 µg/mL in assay [1] (setting [13]); 0.0286 µM in assay [1] (setting [14]); 5 µg/mL in assay [2]; 2 µg/mL (≈ 5.72 µM) in assay [3]; 2 µg/mL (≈ 5.72 µM) in [4]; 80 µg/mL (≈ 229 µM) in assay [5]. Further, the MIC in [6] is above 640 µg/mL; in [7], 4 µg/mL (≈ 11.4 µM); in assay [8], 2 µg/mL (≈ 5.72 µM); in assay [9], 10 µg/mL (≈ 28.6 µM); in the assay on Corynebacterium simulans, above 240 µg/mL; with Staphylococcus xylosus (setting [13]), 5 µg/mL. The MIC is 0.0143 µM with Staphylococcus xylosus (setting [14]); 5 µg/mL (≈ 14.3 µM) in assay [10]; 5 µg/mL in assay [11] (setting [13]); 0.0143 µM in assay [11] (setting [14]); above 240 µg/mL with Aeromonas hydrophila; 15 µg/mL (≈ 42.9 µM) in assay [12]. The MIC in the assay with Streptococcus uberis was above 240 µg/mL.
Turning to `O=C(N[C@H](CO)[C@H](O)c1ccc([N+](=O)[O-])cc1)C(Cl)Cl` [Chloramphenicol, reference compound], the MIC was 10 µg/mL in assay [1] (setting [13]); 0.031 µM in [1] (setting [14]); 3 µg/mL in assay [2]; 4 µg/mL (≈ 12.4 µM) in assay [3]; 5 µg/mL (≈ 15.5 µM) in assay [4]; 10 µg/mL (≈ 30.9 µM) in assay [5]. In addition, the MIC in assay [6] was 80 µg/mL (≈ 248 µM); in [7], 5 µg/mL (≈ 15.5 µM); in [8] it was 8 µg/mL (≈ 24.8 µM); in assay [9] it was 10 µg/mL (≈ 30.9 µM); with Corynebacterium simulans, 8 µg/mL (≈ 24.8 µM); with Staphylococcus xylosus (setting [13]), 8 µg/mL. Besides, the MIC in the assay on Staphylococcus xylosus (setting [14]) came to 0.0248 µM; in [10], 5 µg/mL (≈ 15.5 µM); in [11] (setting [13]), 18 µg/mL; in assay [11] (setting [14]), 0.0558 µM; with Aeromonas hydrophila, 5 µg/mL (≈ 15.5 µM); in [12] it was 3 µg/mL (≈ 9.28 µM). Moreover, the MIC in the assay with Streptococcus uberis was determined as 50 µg/mL (≈ 155 µM).
Regarding `CNC(C)C1CCC(N)C(OC2C(N)CC(N)C(OC3OCC(C)(O)C(NC)C3O)C2O)O1` (stereo not drawn) [Gentamicin, reference compound], the MIC in assay [1] (setting [13]) amounted to 10 µg/mL; in assay [1] (setting [14]) it was 0.0209 µM; in assay [2] it was 1 µg/mL; in assay [3], 15 µg/mL (≈ 31.4 µM); in assay [4] it was 45 µg/mL (≈ 94.2 µM); in assay [5], 1 µg/mL (≈ 2.09 µM). In addition, the MIC in assay [6] turned out to be 1 µg/mL (≈ 2.09 µM); in assay [7], 75 µg/mL (≈ 157 µM); in assay [8] it was 1 µg/mL (≈ 2.09 µM); in assay [9], 90 µg/mL (≈ 188 µM); in the assay with Corynebacterium simulans, 10 µg/mL (≈ 20.9 µM); in the assay on Staphylococcus xylosus (setting [13]) it was 1 µg/mL. The MIC was determined as 0.0021 µM in the assay on Staphylococcus xylosus (setting [14]); 4 µg/mL (≈ 8.38 µM) in assay [10]; 2 µg/mL in [11] (setting [13]); 0.0042 µM in [11] (setting [14]); 4 µg/mL (≈ 8.38 µM) in the assay on Aeromonas hydrophila; 3 µg/mL (≈ 6.28 µM) in [12]. Moreover, the MIC in the assay with Streptococcus uberis amounted to 60 µg/mL (≈ 126 µM).
